Results on one molecule are retold here after paper PMC9551036, “A selective and orally bioavailable VHL-recruiting PROTAC achieves SMARCA2 degradation in vivo” (Nature Communications, 2022).

The subject of this assay is NCI-H1568 tumour xenograft. Description: NCI-H1568 xenograft tumour growth. It is filed as in vivo, mouse. The conditions noted are these: for Tumor volume: qd, individual animals; for TGI: NCI-H1568 xenograft, day 17. How it is done:
To establish subcutaneous tumours, mice were injected with 5 × 10^6 NCI-H1568 in PBS with 5% FCS or with 1 × 10^7 A549 cells in PBS with 5% FCS. Tumour diameters were measured with a caliper three times a week. The volume of each tumour (in mm^3) was calculated according to the formula [tumour volume = length × diameter^2 × π/6]. To monitor side effects of treatment, mice were inspected daily for abnormalities and body weight was determined daily after the start of treatment. Animals were sacrificed when the tumours reached a size of 1500 mm^3. Mice were randomised into treatment groups when the average tumour size reached ~210–220 mm^3. Group sizes were calculated individually for each tumour model based on tumour growth during model establishment experiments. A power analysis was performed using a sample size calculator (https://www.stat.ubc.ca/~rollin/stats/ssize/n2.html). For both models used in the study, 10 mice per group were used for each experiment. All administrations were dosed with 10 ml/kg (s.c. and oral). Control mice were dosed subcutaneously with 10% HP-β-CD in 50% Ringer solution and orally with 15% HP-β-CD, that means the control mouse treatment was corresponding to the solvent of the compounds. Compound 6 was dosed subcutaneously either in a d1-4 q3d, d6-8 q2d, d11-13 q2d treatment (Treatment 1) or a q3 or 4d treatment (Treatment 2).
For the evaluation of the statistical significance of tumour growth inhibition, a one-tailed nonparametric Mann-Whitney-Wilcoxon U-test was performed, based on the hypothesis that an effect would only be measurable in one direction (i.e. expectation of tumour inhibition but not tumour stimulation). Analysis was performed on the day indicated for each experiment. The p values obtained from the U-test were adjusted using the Bonferroni-Holm correction. By convention, p values ≤0.05 indicate significance of differences.

Values joined by “and” are separate entries in the source; they are usually repeats but may differ in a detail not shown here. Equal values may be shown once.

By TGI is commonly meant how far tumour growth fell short of that in controls. Read a high TGI as much slowing of growth. On to `Cc1ncsc1-c1ccc([C@H](CCCCCN2CCC(c3ccc4c(c3)n(C3CCCC3)c3nc(=O)c5c(Br)cccc5n43)CC2)NC(=O)[C@@H]2C[C@@H](O)CN2C(=O)[C@@H](NC(=O)C2(F)CC2)C(C)(C)C)cc1` [compound 11], for which the Tumor volume is, setting by setting: (30 mg/kg, Day 8) 349.89 mm3 and 236.13 mm3 and 336.08 mm3 and 316.23 mm3 and 320.2 mm3 and 407.12 mm3 and 452.47 mm3 and 403.17 mm3 and 435.99 mm3 and 529.54 mm3; (30 mg/kg, Day 10) 411.87 mm3 and 252.06 mm3 and 344.92 mm3 and 322.48 mm3 and 362.94 mm3 and 435.47 mm3 and 364.71 mm3 and 506.51 mm3 and 466.2 mm3 and 503.81 mm3; (30 mg/kg, Day 13) 502.78 mm3 and 248.86 mm3 and 360.62 mm3 and 361.29 mm3 and 382.81 mm3 and 518.2 mm3 and 443.39 mm3 and 514.01 mm3 and 521.41 mm3 and 705.33 mm3; (30 mg/kg, Day 15) 496.47 mm3 and 228.27 mm3 and 504.98 mm3 and 354.71 mm3 and 479.1 mm3 and 517.42 mm3 and 432.15 mm3 and 457.1 mm3 and 602.75 mm3 and 762.29 mm3; (30 mg/kg, Day 17) 650.01 mm3 and 225.32 mm3 and 455.8 mm3 and 341.13 mm3 and 487.7 mm3 and 435.26 mm3 and 381.47 mm3 and 461.01 mm3 and 569.17 mm3 and 686.8 mm3; (100 mg/kg, Day 8) 173.57 mm3 and 358.5 mm3 and 211.9 mm3 and 263.4 mm3 and 447.51 mm3 and 347.41 mm3 and 368.98 mm3 and 478.34 mm3 and 381.06 mm3 and 544.49 mm3. In addition, the Tumor volume is, setting by setting: (100 mg/kg, Day 10) 207.49 mm3 and 318.53 mm3 and 166.3 mm3 and 272.68 mm3 and 439.29 mm3 and 419.1 mm3 and 347.63 mm3 and 427.12 mm3 and 399.48 mm3 and 552.76 mm3; (100 mg/kg, Day 13) 196.26 mm3 and 416.62 mm3 and 227.85 mm3 and 452.58 mm3 and 404.81 mm3 and 268.98 mm3 and 439.16 mm3 and 468.07 mm3 and 536.7 mm3; (100 mg/kg, Day 15) 224.98 mm3 and 458.86 mm3 and 260 mm3 and 554.09 mm3 and 490.11 mm3 and 263.77 mm3 and 439.21 mm3 and 536.89 mm3 and 543.63 mm3; (100 mg/kg, Day 17) 221.9 mm3 and 357.16 mm3 and 324.28 mm3 and 608.34 mm3 and 580.36 mm3 and 307.51 mm3 and 368.83 mm3 and 566.83 mm3 and 599.71 mm3; (100 mg/kg, Day 20) 230.91 mm3 and 452.52 mm3 and 264.14 mm3. Moreover, the TGI by setting is: (30 mg/kg p.o. daily) 64%; (100 mg/kg p.o. daily) 76%.
